Assay results as given in paper PMC6556873, “Rapid Covalent-Probe Discovery by Electrophile-Fragment Screening” (Journal of the American Chemical Society, 2019).
Where two headings read alike, the source gives them in different places.

Assays:
[1] = in vitro; design: species or system HB2, HEK293; conditions: human, ccd841 cells
[2] = in vitro; design: species or system HB2, CCD841; conditions: human, hek293 cells
[3] = target: T1, BSA (Bos taurus, UniProt P02769); design: Intact protein LC/MS covalent labelling, fragments in pools of five, 200 uM each, 4 °C; conditions: 24 h, 4 °C, pool of five; 200 µM; covalent
T1 construct: gene ALB

[4] = target: T2, NNMT (hNNMT) (Homo sapiens, UniProt P40261); design: Intact protein LC/MS covalent labelling, fragments in pools of five, 200 uM each, 4 °C; conditions: 24 h, 4 °C, pool of five; 200 µM; covalent
T2 construct: wild type, N-terminal His6 tag kept (no cleavage described), E. coli, construct 31248 Da
T2 sequence (P40261 1-264): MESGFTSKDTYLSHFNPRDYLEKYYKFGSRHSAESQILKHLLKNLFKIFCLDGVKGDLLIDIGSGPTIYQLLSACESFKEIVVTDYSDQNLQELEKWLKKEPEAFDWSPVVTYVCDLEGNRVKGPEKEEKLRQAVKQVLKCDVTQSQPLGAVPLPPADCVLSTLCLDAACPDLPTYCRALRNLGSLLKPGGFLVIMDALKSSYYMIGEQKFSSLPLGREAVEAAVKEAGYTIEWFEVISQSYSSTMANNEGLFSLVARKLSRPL

[5] = target: T3, NUDT7 (Homo sapiens, UniProt P0C024); design: Intact protein LC/MS covalent labelling, fragments in pools of five, 200 uM each, 4 °C; conditions: 24 h, 4 °C, pool of five; 200 µM; covalent
T3 construct: residues 14-235, E. coli, pNIC28-Bsa4, N-terminal His6 tag removed by TEV, construct 26672 Da

[6] = target: T4, PCAF (Homo sapiens, UniProt Q92831); design: Intact protein LC/MS covalent labelling, fragments in pools of five, 200 uM each, 4 °C; conditions: 24 h, 4 °C, pool of five; 200 µM; covalent
T4 construct: gene KAT2B

[7] = target: T5, OTUB2 (OTUB2A) (Homo sapiens, UniProt Q96DC9); design: Intact protein LC/MS covalent labelling, fragments in pools of five, 200 uM each, 4 °C; conditions: 24 h, 4 °C, pool of five; 200 µM; covalent
T5 construct: full length residues 1-234, E. coli BL21(DE3)-R3, His tag removed by TEV, construct 27312 Da
T5 sequence (Q96DC9 1-234): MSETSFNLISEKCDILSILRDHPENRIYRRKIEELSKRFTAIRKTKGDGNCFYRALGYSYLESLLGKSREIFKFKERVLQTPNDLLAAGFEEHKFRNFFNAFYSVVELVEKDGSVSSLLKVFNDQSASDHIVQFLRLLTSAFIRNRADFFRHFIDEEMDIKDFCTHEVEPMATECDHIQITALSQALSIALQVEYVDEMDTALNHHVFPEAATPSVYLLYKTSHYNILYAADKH

[8] = in vitro; design: species or system CCD841, HEK293; conditions: human, hb2 cells, read-out: HB-2 Cells Viability (%)

T3 sequence (P0C024 14-235): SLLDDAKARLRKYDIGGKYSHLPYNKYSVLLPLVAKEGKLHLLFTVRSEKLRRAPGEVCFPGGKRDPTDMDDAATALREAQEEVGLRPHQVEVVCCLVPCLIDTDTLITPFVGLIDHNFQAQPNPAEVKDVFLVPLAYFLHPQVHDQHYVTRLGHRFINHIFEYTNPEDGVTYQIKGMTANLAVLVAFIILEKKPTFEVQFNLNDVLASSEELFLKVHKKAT
T1 sequence (P02769 whole entry, the tested form may be a part): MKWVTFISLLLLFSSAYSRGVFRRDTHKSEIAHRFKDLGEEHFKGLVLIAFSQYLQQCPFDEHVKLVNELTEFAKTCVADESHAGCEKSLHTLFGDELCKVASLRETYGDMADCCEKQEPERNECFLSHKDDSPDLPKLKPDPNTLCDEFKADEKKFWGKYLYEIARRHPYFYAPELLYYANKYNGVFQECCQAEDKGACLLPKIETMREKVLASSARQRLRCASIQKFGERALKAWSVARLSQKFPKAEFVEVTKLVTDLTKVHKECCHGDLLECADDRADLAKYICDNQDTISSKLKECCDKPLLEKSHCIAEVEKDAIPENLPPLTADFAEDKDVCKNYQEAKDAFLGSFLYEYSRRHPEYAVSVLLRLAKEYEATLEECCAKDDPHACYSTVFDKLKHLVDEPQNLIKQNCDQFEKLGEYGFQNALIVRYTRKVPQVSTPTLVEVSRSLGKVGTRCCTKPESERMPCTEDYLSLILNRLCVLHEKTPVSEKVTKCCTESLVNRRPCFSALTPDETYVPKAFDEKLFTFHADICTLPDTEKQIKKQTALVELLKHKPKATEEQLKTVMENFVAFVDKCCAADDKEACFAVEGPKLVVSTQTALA
T4 sequence (Q92831 whole entry, the tested form may be a part): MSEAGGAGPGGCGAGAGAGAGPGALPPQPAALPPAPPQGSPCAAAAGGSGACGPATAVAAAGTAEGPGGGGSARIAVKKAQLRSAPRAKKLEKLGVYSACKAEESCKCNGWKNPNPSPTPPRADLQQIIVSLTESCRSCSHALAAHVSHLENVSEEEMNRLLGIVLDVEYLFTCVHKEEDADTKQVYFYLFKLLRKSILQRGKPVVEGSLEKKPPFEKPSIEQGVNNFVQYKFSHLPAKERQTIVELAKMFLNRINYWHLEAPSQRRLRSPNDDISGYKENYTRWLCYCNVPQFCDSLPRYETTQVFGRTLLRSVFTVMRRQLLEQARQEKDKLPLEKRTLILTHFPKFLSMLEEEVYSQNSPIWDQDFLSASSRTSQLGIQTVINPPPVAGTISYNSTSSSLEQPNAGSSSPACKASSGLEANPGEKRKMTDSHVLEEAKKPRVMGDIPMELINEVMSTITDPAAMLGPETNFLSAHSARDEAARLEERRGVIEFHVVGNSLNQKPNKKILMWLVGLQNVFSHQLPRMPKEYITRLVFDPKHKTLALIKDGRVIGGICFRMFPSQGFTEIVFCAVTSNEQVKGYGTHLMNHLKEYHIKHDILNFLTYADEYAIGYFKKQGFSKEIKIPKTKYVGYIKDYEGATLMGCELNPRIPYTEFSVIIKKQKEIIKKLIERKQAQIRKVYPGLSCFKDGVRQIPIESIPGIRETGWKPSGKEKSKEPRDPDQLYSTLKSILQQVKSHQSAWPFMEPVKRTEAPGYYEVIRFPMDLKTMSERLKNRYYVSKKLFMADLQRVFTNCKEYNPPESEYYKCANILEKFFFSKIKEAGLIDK

O=C(Nc1ccccc1O)C1CCN(C(=O)CCl)CC1 [PCM-0102389]
viability at 48 h, 10 µM [1]: 63%
viability at 48 h, 10 µM [2]: 16%
BSA [3]: 0
NNMT [4]: 0
NUDT7 [5]: 0.1
PCAF [6]: 0
OTUB2 [7]: 0.14
viability at 48 h, 10 µM [8]: 35.7%

C=CC(=O)NC1(c2nnc3n2CCCC3)CCC1 [PCM-0102639]
viability at 48 h, 10 µM [1]: 131%
viability at 48 h, 10 µM [2]: 123%
BSA [3]: 0
NNMT [4]: 0
NUDT7 [5]: 0
PCAF [6]: 0
OTUB2 [7]: 0
viability at 48 h, 10 µM [8]: 101%

CC(=O)N1CCC(NC(=O)CCl)CC1 [PCM-0102932]
viability at 48 h, 10 µM [1]: 85.9%
viability at 48 h, 10 µM [2]: 88%
BSA [3]: 0
NNMT [4]: 0
NUDT7 [5]: 0
PCAF [6]: 0
OTUB2 [7]: 0.07
viability at 48 h, 10 µM [8]: 95.1%

O=C(CCl)N(C1CCCC1)C1CC1 [PCM-0103064]
viability at 48 h, 10 µM [1]: 87.8%
viability at 48 h, 10 µM [2]: 74%
BSA [3]: 0
NNMT [4]: 0
NUDT7 [5]: 0
PCAF [6]: 0
OTUB2 [7]: 0
viability at 48 h, 10 µM [8]: 102%

O=C(CCl)Nc1c(F)cc(F)cc1Br [PCM-0102189]
viability at 48 h, 10 µM [1]: 59.6%
viability at 48 h, 10 µM [2]: 72.4%
BSA [3]: 0
NNMT [4]: 0.11
NUDT7 [5]: 0.1
PCAF [6]: 0
OTUB2 [7]: 0
viability at 48 h, 10 µM [8]: 79.5%

O=C(CCl)Nc1nnc(-c2ccccc2)o1 [PCM-0102458]
viability at 48 h, 10 µM [1]: 98%
viability at 48 h, 10 µM [2]: 104%
BSA [3]: 0
NNMT [4]: 0.14
NUDT7 [5]: 0
PCAF [6]: 0
OTUB2 [7]: 0.08
viability at 48 h, 10 µM [8]: 97.2%

C=CC(=O)N1CCCc2c([nH]c3c(F)cccc23)C1 [PCM-0102767]
viability at 48 h, 10 µM [1]: 96.6%
viability at 48 h, 10 µM [2]: 96%
BSA [3]: 0.1
NNMT [4]: 0
NUDT7 [5]: 0
PCAF [6]: 0
OTUB2 [7]: 0
viability at 48 h, 10 µM [8]: 89.2%

O=C(CCl)Nc1ccon1 [PCM-0103077]
viability at 48 h, 10 µM [1]: 61.1%
viability at 48 h, 10 µM [2]: 64.8%
BSA [3]: 0
NNMT [4]: 0
NUDT7 [5]: 0
PCAF [6]: 0
OTUB2 [7]: 0.3
viability at 48 h, 10 µM [8]: 77.3%

C=CC(=O)N1CCCC(n2nc(C)nc2C)C1 (stereo not shown) [PCM-0102479]
viability at 48 h, 10 µM [1]: 111%
viability at 48 h, 10 µM [2]: 98.5%
BSA [3]: 0
NNMT [4]: 0
NUDT7 [5]: 0
PCAF [6]: 0
OTUB2 [7]: 0
viability at 48 h, 10 µM [8]: 101%

CN(Cc1ccccc1)C(=O)CCl [PCM-0102984]
viability at 48 h, 10 µM [1]: 91.6%
viability at 48 h, 10 µM [2]: 55.2%
BSA [3]: 0
NNMT [4]: 0
NUDT7 [5]: 0.11
PCAF [6]: 0
OTUB2 [7]: 0
viability at 48 h, 10 µM [8]: 78.6%

O=C(CCl)N1CCCCCC1 [PCM-0102751]
viability at 48 h, 10 µM [1]: 85.6%
viability at 48 h, 10 µM [2]: 73.7%
BSA [3]: 0
NNMT [4]: 0
NUDT7 [5]: 0
PCAF [6]: 0
OTUB2 [7]: 0
viability at 48 h, 10 µM [8]: 99.5%

O=C(CCl)NC(=O)c1ccc[nH]1 [PCM-0102795]
viability at 48 h, 10 µM [1]: 100%
viability at 48 h, 10 µM [2]: 149%
BSA [3]: 0
NNMT [4]: 0
NUDT7 [5]: 0
PCAF [6]: 0
OTUB2 [7]: 0
viability at 48 h, 10 µM [8]: 96.2%

O=C(CCl)NCC1CCC1 [PCM-0103065]
viability at 48 h, 10 µM [1]: 108%
viability at 48 h, 10 µM [2]: 104%
BSA [3]: 0
NNMT [4]: 0
NUDT7 [5]: 0
PCAF [6]: 0
OTUB2 [7]: 0
viability at 48 h, 10 µM [8]: 104%

Cc1ccc(NC(=O)NC(=O)CCl)cc1C [PCM-0102119]
viability at 48 h, 10 µM [1]: 63.5%
viability at 48 h, 10 µM [2]: 63.3%
BSA [3]: 0
NNMT [4]: 0.57
NUDT7 [5]: 0.09
PCAF [6]: 0
OTUB2 [7]: 0
viability at 48 h, 10 µM [8]: 48.8%

Cc1ccc(-c2cc(NC(=O)CCl)on2)cc1 [PCM-0102382]
viability at 48 h, 10 µM [1]: 54.6%
viability at 48 h, 10 µM [2]: 52.2%
BSA [3]: 0
NNMT [4]: 0.64
NUDT7 [5]: 0.81
PCAF [6]: 0
OTUB2 [7]: 0.45
viability at 48 h, 10 µM [8]: 42.7%

C=CC(=O)NNC(=O)c1ccccc1 [PCM-0102541]
viability at 48 h, 10 µM [1]: 112%
viability at 48 h, 10 µM [2]: 106%
BSA [3]: 0
NNMT [4]: 0
NUDT7 [5]: 0
PCAF [6]: 0
OTUB2 [7]: 0
viability at 48 h, 10 µM [8]: 106%

O=C(CCl)N1CCN(Cc2ccc3c(c2)OCCO3)CC1 [PCM-0102386]
viability at 48 h, 10 µM [1]: 75.9%
viability at 48 h, 10 µM [2]: 39.1%
BSA [3]: 0
NNMT [4]: 0
NUDT7 [5]: 0
PCAF [6]: 0
OTUB2 [7]: 0
viability at 48 h, 10 µM [8]: 42.2%

C=CC(=O)N1CCCN(c2ccc(-c3ccccc3)nn2)CC1 [PCM-0102964]
viability at 48 h, 10 µM [1]: 103%
viability at 48 h, 10 µM [2]: 87.2%
BSA [3]: 0
NNMT [4]: 0
NUDT7 [5]: 0
PCAF [6]: 0
OTUB2 [7]: 0
viability at 48 h, 10 µM [8]: 102%

C=CC(=O)NC1(C(N)=O)CCCOC1 (stereo not shown) [PCM-0102608]
viability at 48 h, 10 µM [1]: 107%
viability at 48 h, 10 µM [2]: 118%
BSA [3]: 0
NNMT [4]: 0
NUDT7 [5]: 0
PCAF [6]: 0
OTUB2 [7]: 0
viability at 48 h, 10 µM [8]: 107%

N#Cc1ccc(C(=O)NNC(=O)CCl)cc1 [PCM-0102892]
viability at 48 h, 10 µM [1]: 85.9%
viability at 48 h, 10 µM [2]: 103%
BSA [3]: 0
NNMT [4]: 0
NUDT7 [5]: 0
PCAF [6]: 0
OTUB2 [7]: 0.14
viability at 48 h, 10 µM [8]: 86.2%
